Measurements: ChEMBL document CHEMBL3046747, “Assessment of species specificity of moulting accelerating compounds in Lepidoptera: comparison of activity between Bombyx mori and Spodoptera littoralis by in vitro reporter and in vivo toxicity assays” (Pest Manag Sci, 2010)

Experiments:
[1] = target: T1, Ecdysone receptor (Spodoptera littoralis, UniProt E3UJZ5); assay: Antagonist activity at ecdysone receptor in Spodoptera littoralis Sl2 cells assessed as tebufenozide-induced effect treated 24 hr before tebufenozide challenge measured after 24 hr by luciferase reporter gene assay; format: cell-based
T1 sequence (E3UJZ5 whole entry): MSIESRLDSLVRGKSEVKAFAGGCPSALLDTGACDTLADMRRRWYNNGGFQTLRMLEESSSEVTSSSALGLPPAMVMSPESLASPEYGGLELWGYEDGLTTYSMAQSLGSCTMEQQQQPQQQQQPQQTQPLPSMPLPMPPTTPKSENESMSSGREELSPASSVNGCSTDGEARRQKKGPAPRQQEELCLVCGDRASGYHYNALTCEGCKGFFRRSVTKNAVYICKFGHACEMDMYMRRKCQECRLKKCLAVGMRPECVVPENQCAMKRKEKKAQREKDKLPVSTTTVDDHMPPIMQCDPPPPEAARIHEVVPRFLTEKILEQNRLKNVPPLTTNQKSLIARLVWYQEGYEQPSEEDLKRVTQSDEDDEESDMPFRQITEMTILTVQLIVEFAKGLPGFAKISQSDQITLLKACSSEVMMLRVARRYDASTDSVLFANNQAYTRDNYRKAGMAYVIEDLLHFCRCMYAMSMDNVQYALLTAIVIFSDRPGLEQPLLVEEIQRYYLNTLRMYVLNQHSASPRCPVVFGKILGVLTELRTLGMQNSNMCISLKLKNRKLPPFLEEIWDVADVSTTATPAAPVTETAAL

[2] = Cytotoxicity against Bombyx mori Bm5 cells assessed as cell viability after 24 hr by MTT assay; format: cell-based; conditions: read-out: pLC50 (converted)
[3] = Ratio of IC50 for ecdysone receptor in Bombyx mori Bm5 cells to LC50 for Bombyx mori Bm5 cells
[4] = target: T2, Ecdysone receptor (Bombyx mori, UniProt P49881); assay: Antagonist activity at ecdysone receptor in Bombyx mori Bm5 cells assessed as tebufenozide-induced effect treated 24 hr before tebufenozide challenge measured after 24 hr by luciferase reporter gene assay; format: cell-based
T2 sequence (P49881 whole entry): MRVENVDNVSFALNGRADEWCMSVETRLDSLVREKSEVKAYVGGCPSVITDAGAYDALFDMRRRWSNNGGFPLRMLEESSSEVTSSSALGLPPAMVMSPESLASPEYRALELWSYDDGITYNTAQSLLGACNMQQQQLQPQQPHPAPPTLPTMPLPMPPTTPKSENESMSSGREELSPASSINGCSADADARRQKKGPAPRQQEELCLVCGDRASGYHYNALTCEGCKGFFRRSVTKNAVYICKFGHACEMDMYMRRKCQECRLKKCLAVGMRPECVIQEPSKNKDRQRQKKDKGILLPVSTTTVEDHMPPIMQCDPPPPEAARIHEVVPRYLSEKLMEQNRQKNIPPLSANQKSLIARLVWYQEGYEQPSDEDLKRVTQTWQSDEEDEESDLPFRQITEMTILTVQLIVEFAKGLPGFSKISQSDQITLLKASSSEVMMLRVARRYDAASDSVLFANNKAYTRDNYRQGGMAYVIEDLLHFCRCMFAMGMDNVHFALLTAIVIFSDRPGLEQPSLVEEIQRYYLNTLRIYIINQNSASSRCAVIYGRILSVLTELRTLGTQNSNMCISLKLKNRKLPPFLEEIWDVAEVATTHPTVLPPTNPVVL

[5] = system: Spodoptera littoralis; assay: Cytotoxicity against Spodoptera littoralis Sl2 cells assessed as cell viability after 24 hr by MTT assay; conditions: read-out: pLC50 (converted)
[6] = Ratio of IC50 for ecdysone receptor in Spodoptera littoralis Sl2 cells to LC50 for Spodoptera littoralis Sl2 cells
[7] = system: Bombyx mori; assay: Larvicidal activity against Bombyx mori assessed as mortality applied topically after 1 week; format: functional
[8] = Selectivity ratio of EC50 for ecdysone receptor in Bombyx mori Bm5 cells to EC50 for ecdysone receptor in Spodoptera littoralis Sl2 cells; format: cell-based
[9] = Ratio of LD50 for Spodoptera littoralis to LD50 for Bombyx mori; format: functional
[10] = target: T1, Ecdysone receptor; assay: Agonist activity at ecdysone receptor in Spodoptera littoralis Sl2 cells after 24 hr by luciferase reporter gene assay; format: cell-based
[11] = system: Spodoptera littoralis; assay: Larvicidal activity against Spodoptera littoralis assessed as mortality applied topically after 1 week; format: functional
[12] = target: T3, Ecdysone receptor (Spodoptera littoralis) (UniProt E3UJZ5); assay: Agonist activity at ecdysone receptor in Spodoptera littoralis Sl2 cells after 24 hr by luciferase reporter gene assay relative to tebufenozide; format: cell-based
T3 sequence (whole entry): T1 sequence (E3UJZ5 whole entry)

[13] = target: T2, Ecdysone receptor; assay: Agonist activity at ecdysone receptor in Bombyx mori Bm5 cells after 24 hr by luciferase reporter gene assay; format: cell-based
[14] = target: T4, Ecdysone receptor (Bombyx mori) (UniProt P49881); assay: Agonist activity at ecdysone receptor in Bombyx mori Bm5 cells after 24 hr by luciferase reporter gene assay relative to tebufenozide; format: cell-based
T4 sequence (whole entry): T2 sequence (P49881 whole entry)

| SMILES | IC50 [1] | CC50 at 24 h [2] | Ratio [3] | IC50 [4] | CC50 at 24 h [5] | Ratio [6] | pLD50 [7] | Ratio EC50 [8] | Ratio [9] | EC50 ([10]; read-out: pEC50 (converted)) | pLD50 [11] | Efficacy [12] | EC50 ([13]; read-out: pEC50 (converted)) | Efficacy [14] | EC50 ([10]; read-out: EC50) | EC50 ([13]; read-out: EC50) |
| --- | --- | --- | --- | --- | --- | --- | --- | --- | --- | --- | --- | --- | --- | --- | --- | --- |
| CC1CCc2ccccc2N1C(=O)c1ccc(Cl)cc1 (stereo unspecified) | 55 µM | 69.2 µM | 0.69 | 47.9 µM | 102 µM | 0.53 |  |  |  |  |  |  |  |  |  |  |
| Cc1ccc(NC2CC(C)N(C(=O)c3ccc(C(C)(C)C)cc3)c3ccc(C)cc32)cc1 (stereo unspecified) | > 25.1 µM | 11.5 µM | 2.09 | 24 µM | > 25.1 µM |  |  |  |  |  |  |  |  |  |  |  |
| Cc1ccc(N(C(=O)c2ccc(Cl)cc2)C2CC(C)N(C(=O)c3ccc(Cl)cc3)c3ccc(C)cc32)cc1 (stereo unspecified) | 12.9 µM | 7.08 µM | 1.91 | 13.5 µM | > 15.1 µM | <0.85 |  |  |  |  |  |  |  |  |  |  |
| Cc1ccc(NC2CCN(C(=O)c3ccc(Cl)cc3)CC2)cc1 | 15.1 µM | < 5.01 µM |  | 2.24 µM | 27.5 µM | 0.55 |  |  |  |  |  |  |  |  |  |  |
| Cc1ccc(NC2CCN(C(=O)c3ccc(Cl)cc3)c3ccccc32)cc1 (stereo unspecified) |  | 21.4 µM | 0.42 | 8.91 µM | 427 µM | 0.12 |  |  |  |  |  |  |  |  |  |  |
| CC(C)(C)N(NC(=O)c1ccc(Cl)cc1)C(=O)c1ccccc1 [HALOFENOZIDE] |  |  |  |  |  |  | 6.52 | 0.17 | 12.3 | 0.457 µM | 5.43 | 107% | 0.0776 µM | 95% |  |  |
| CC1CC(Nc2ccc(F)cc2)c2cc(F)ccc2N1C(=O)c1ccc(Cl)cc1 (stereo unspecified) |  | 162 µM |  |  | > 501 µM |  |  |  |  |  |  | 64% |  | 59% | 60 µM | 55 µM |
| CCc1ccc(C(=O)NN(C(=O)c2ccccc2)C(C)(C)C)cc1 |  |  |  |  |  |  | 7.09 | 0.16 | > 39.8 | 0.11 µM | <5.49 | 110% | 0.0174 µM | 84% |  |  |
| Cc1cc(C)cc(C(=O)N(NC(=O)c2ccccc2)C(C)(C)C)c1 |  |  |  |  |  |  | 5.98 | 0.39 | > 3.09 | 0.501 µM | <5.49 | 75% | 0.2 µM | 118% |  |  |
| Cc1cc(C)cc(C(=O)N(NC(=O)c2ccc(C(C)(C)C)cc2)C(C)(C)C)c1 |  |  |  |  |  |  | 7.19 | 1.01 | > 295 | 0.00708 µM | 4.72 | 69% | 0.00708 µM | 88% |  |  |
| Cc1cc(C)c(Cl)c(C(=O)N(NC(=O)c2ccc3c(c2C)CCCO3)C(C)(C)C)c1 |  |  |  |  |  |  | 5.01 | 0.49 | > 4.47 | 0.0676 µM | <4.36 | 114% | 0.0331 µM | 95% |  |  |
| Cc1ccccc1C(=O)NN(C(=O)c1ccccc1Cl)C(C)(C)C |  |  |  |  |  |  | 6.69 | 0.3 | > 17 | 0.437 µM | <5.46 | 124% | 0.129 µM | 98% |  |  |
| Cc1cc(C)cc(C(=O)N(NC(=O)c2cccc(C)c2C)C(C)(C)C)c1 |  |  |  |  |  |  | 7.29 | 0.68 | 7.08 | 0.0162 µM | 6.44 | 63% | 0.011 µM | 82% |  |  |
| Cc1ccc(NC2CC(C)N(C(=O)c3ccc(C)cc3)c3ccc(C)cc32)cc1 (stereo unspecified) | 74.1 µM | 30.2 µM | 0.89 | 26.9 µM | > 501 µM | <0.15 |  |  |  |  |  |  |  |  |  |  |
| COc1cccc(C(=O)NN(C(=O)c2cc(C)cc(C)c2)C(C)(C)C)c1C [METHOXYFENOZIDE] |  |  |  |  |  |  | 8.18 | 0.56 | 3.16 | 0.00603 µM | 7.68 | 100% | 0.00339 µM | 103% |  |  |
| Cc1cc(C)cc(C(=O)C2(NC(=O)c3ccc4c(c3C)CCCO4)CCCCC2)c1 |  |  |  |  |  |  | 6.53 | 1.29 | > 13.8 | 0.00339 µM | <5.39 | 106% | 0.00437 µM | 102% |  |  |
| CC(C)(C)N(NC(=O)c1ccccc1F)C(=O)c1ccccc1Cl |  |  |  |  |  |  | 7.37 | 0.5 | > 468 | 0.288 µM | <4.7 | 105% | 0.145 µM | 93% |  |  |
| Cc1ccc(NC2CC(C)N(C(=O)c3ccc(Cl)cc3)c3ccc(C)cc32)cc1 (stereo unspecified) | 79.4 µM | 34.7 µM | 0.43 | 14.8 µM | > 501 µM | <0.16 |  |  |  |  |  |  |  |  |  |  |
| Cc1cc(C)cc(C(=O)N(NC(=O)c2ccc3c(c2C)CCCO3)C(C)(C)C)c1 [CHROMAFENOZIDE] |  |  |  |  |  |  | 7.55 | 0.38 | 1.12 | 0.00263 µM | 7.53 | 103% | 0.001 µM | 98% |  |  |
| Cc1c(C(=O)NN(C(=O)c2ccccc2Cl)C(C)(C)C)ccc2c1CCCO2 |  |  |  |  |  |  | 6.95 | 0.53 | > 355 | 0.00537 µM | <4.4 | 108% | 0.00288 µM | 106% |  |  |
